Laboratory results from US6855713B2, “Benzimidazole derivatives, a process for their manufacture and use as a medicine” (Boehringer Ingelheim Pharma KG, priority 2001, dated 2005).
Counter-ions that a name gives are not always drawn.

These molecules were tested against T1, rh beta trypsin (Homo sapiens, UniProt P20231) (assay: Trypsin (tryptase) inhibition, cleavage of N-p-Gly-Pro-Lys-para-nitroaniline measured at 405 nm). Settings: in vitro tests on the pro-drugs of formula IIA; read-out: IC50.
T1 construct: purchased Promega
T1 sequence (P20231 31-275): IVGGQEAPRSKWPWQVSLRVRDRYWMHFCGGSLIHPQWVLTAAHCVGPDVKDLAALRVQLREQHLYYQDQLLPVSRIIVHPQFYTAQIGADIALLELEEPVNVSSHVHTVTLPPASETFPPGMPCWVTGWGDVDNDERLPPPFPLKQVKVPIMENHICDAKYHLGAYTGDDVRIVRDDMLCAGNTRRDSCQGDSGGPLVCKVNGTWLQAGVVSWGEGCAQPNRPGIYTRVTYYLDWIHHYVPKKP
Assay type: biochemical
Protocol: The compounds of the invention are notable for their effective trypsin-inhibiting property. The said capacity to inhibit trypsin activity was determined in accordance with the following trial descriptions.
The determinations are carried out in tris-HCl buffer (100 mM), that also contained calcium (5 mM) and heparin ([…]), at a pH of 7.4. As the standard, rh beta trypsin is used, this is commercially obtainable, for example, from Promega. A suitable substrate is N-p-Gly-Pro-Lys-para-nitroaniline in a concentration of 0.6 mM. The substrate is digested with trypsin, whereby p-nitro-aniline is obtained that can be measured at 405 nm. Normally, an incubation period of 5 minutes and an incubation temperature of 37° C. is chosen. For the enzyme activity, 0.91 U/ml are used. The determination is carriedout in an auto-analyser (Cobas Bio) from the firm Hoffmann LaRoche. The potential inhibitor substances are used in the screening procedure in concentrations of 10 μM, and the inhibition of the trypsin is given in percentages. At an inhibition in excess of 70%, the IC50 is determined (the concentration at which 50% of the enzyme activity is inhibited). After a 5-minute pre-incubation of the potential inhibiting substance, the substrate is added for the start of the reaction, whereby the production of p-nitro-aniline is taken, after 5 minutes, after testing the linearity, as a measure of the enzyme activity.

For `CCOC(=O)N=C(N)c1ccc(CCc2nc3cc(C(=O)N4CCC(NC(=O)c5ccccc5)CC4)ccc3n2C)cc1` [IIA6], which IC50 is on record?
Its IC50 is 2490 nM.

Same assay, conditions: in vitro; tris-HCl buffer pH 7.4 with calcium and heparin; substrate 0.6 mM; 5 minutes, 37° C.; read-out: Trypsin-inhibiting property

How did the IC50 turn out when `Cn1c(CCc2ccc(C(=N)N)cc2)nc2cc(C(=O)N3CCC(NC(=O)Nc4ccc5ccccc5c4)CC3)ccc21` [Example 36, 4-(2-{1-Methyl-5-[4-(3-naphthalen-2-yl-ureido)-piperidine-1-carbonyl]-1H-benzimidazole-2-yl}-ethyl)-benzamidine] was run?
Its IC50 is 1 to 20 nM.

For `Cn1c(CCc2ccc(C(=N)N)cc2)nc2cc(C(=O)N3CCC(Nc4cccc(Cl)c4Cl)CC3)ccc21` [Example 65], which IC50 is on record?
The IC50 was 1 to 20 nM.

How did the IC50 turn out when `Cn1c(CCc2ccc(C(=N)N)cc2)nc2cc(C(=O)N3CCC(NC(=O)c4cccc(Cl)c4Cl)CC3)ccc21` [Example 67] was run?
Its IC50 is 0.1 to 1 nM.

How did the IC50 turn out when `COC(=O)c1cccc(NC(=O)N(C)C2CCN(C(=O)c3ccc4c(c3)nc(CCc3ccc(C(=N)N)cc3)n4C)CC2)c1` [Example 61, 2-[2-(4-Amidinophenyl)-ethyl]-1-methyl-benzimidazole-5-yl-carboxylic acid-{4-[3-(3-methoxycarbonyl)-phenyl-1-methyl-ureido]piperidinyl)-amide] was run?
The IC50 was 1 to 20 nM.

How did the IC50 turn out when `Cn1c(CCc2ccc(C(=N)N)cc2)nc2cc(C(=O)N3CCC(NC(=O)Nc4cccc(Cl)c4)CC3)ccc21` [Example 60, 2-[2-(4-Amidinophenyl)-ethyl]-1-methyl-benzimidazole-5-yl-carboxylic acid-{4-[3-(3-chloro)-phenylureido]piperidinyl}-amide] was run?
Its IC50 is 0.1 to 1 nM.

`CSc1cccc(NC(=O)NC2CCN(C(=O)c3ccc4c(c3)nc(CCc3ccc(C(=N)N)cc3)n4C)CC2)c1` [Example 58, 2-[2-(4-Amidinophenyl)-ethyl]-1-methyl-benzimidazole-5-yl-carboxylic acid-{4-[3-(3-methylsulfanyl)phenylureido]piperidinyl}-amide] was tested. Which IC50 did it give?
The IC50 was 0.1 to 1 nM.

Which IC50 does the source give for `Cn1c(CCc2ccc(C(=N)N)cc2)nc2cc(C(=O)N3CCC(NC(=O)Nc4ccc(Cl)cc4)CC3)ccc21` [Example 31, 4-[2-(5-{4-[3-(4-Chloro-phenyl)-ureido]-piperidine-1-carbonyl}-1-methyl-1H-benzimidazole-2-yl)-ethyl]-benzamidine] here?
Its IC50 is 1 to 20 nM.

For `Cn1c(CCc2ccc(C(=N)N)cc2)nc2cc(C(=O)N3CCC(NC(=O)c4cc(Cl)ccc4Cl)CC3)ccc21` [Example 64], which IC50 is on record?
Its IC50 is 0.1 to 1 nM.

`CN(C1CCN(C(=O)c2ccc3c(c2)nc(CCc2ccc(C(=N)N)cc2)n3C)CC1)S(=O)(=O)c1cccc(Cl)c1Cl` [Example 171] was tested. Which IC50 did it give?
Its IC50 is 20 to 50 nM.

`COC(=O)c1cccc(NC(=O)NC2CCN(C(=O)c3ccc4c(c3)nc(CCc3ccc(C(=N)N)cc3)n4C)CC2)c1` [Example 57, 2-[2-(4-Amidinophenyl)-ethyl]-1-methyl-benzimidazole-5-yl-carboxylic acid-{4-[3-(3-methoxycarbonyl)phenylureido]piperidinyl}-amide] was tested. Which IC50 did it give?
Its IC50 is 1 to 20 nM.

`CCOCCCn1c(CCc2ccc(C(=N)N)cc2)nc2cc(C(=O)N3CCC(NC(=O)Nc4ccccc4)CC3)ccc21` [Example 20, 2-[2-(4-Amidinophenyl)-ethyl]-1-(3-ethoxy-propyl)-benzimidazol-5-yl-carbonsäure-[4-(3-phenyl-ureido)-piperidinyl]-amid-dihydrochlorid] was tested. Which IC50 did it give?
The IC50 was 1 to 20 nM.

How did the IC50 turn out when `Cn1c(CCc2ccc(C(=N)N)cc2)nc2cc(C(=O)N3CCC(NC(=O)Nc4cccc(C(=O)O)c4)CC3)ccc21` [Example 62, [2-(4-Amidinophenyl)-ethyl]-1-methyl-benzimidazole-5-yl-carboxylic acid-{4-[3-(3-carboxyphenyl)-ureido]-piperidinyl}-amide] was run?
Its IC50 is 1 to 20 nM.

How did the IC50 turn out when `Cn1c(CCc2ccc(C(=N)N)cc2)nc2cc(C(=O)N3CCC(NC(=O)Nc4ccc(Br)cc4)CC3)ccc21` [Example 39, 4-[2-(5-{4-[3-(4-Bromo-phenyl)-ureido]-piperidine-1-carbonyl}-1-methyl-1H-benzimidazole-2-yl)-ethyl] -benzamidine] was run?
The IC50 was 1 to 20 nM.

For `Cn1c(CCc2ccc(C(=N)N)cc2)nc2cc(C(=O)N3CCC(NC(=O)c4cccc(Cl)c4Cl)CC3)ccc21` [Example 49, 2-[2-(4-Amidinophenyl)-ethyl]-1-methyl-benzimidazole-5-yl-carboxylic acid-[4-(2,3-dichloro)-benzamidopiperidinyl)-amide], which IC50 is on record?
Its IC50 is 1 to 20 nM.

`Cn1c(CCc2ccc(C(=N)N)cc2)nc2cc(C(=O)N3CCC(NC(=O)c4cccc(Cl)c4)CC3)ccc21` [Example 44, 2-[2-(4-Amidinophenyl)-ethyl]-1-methyl-benzimidazole-5-yl-carboxylic acid-[4-(3-chloro)-benzamidopiperidinyl)-amide] was tested. Which IC50 did it give?
The IC50 was 0.1 to 1 nM.

With `Cc1cccc(NC(=O)NC2CCN(C(=O)c3ccc4c(c3)nc(CCc3ccc(C(=N)N)cc3)n4C)CC2)c1` [Example 25, 4-(2-{1-Methyl-5-[4-(3-m-tolyl-ureido)-piperidine-1-carbonyl]-1H-benzimidazole-2-yl}-ethyl)-benzamidine] as the molecule, how does the IC50 read?
The IC50 was 1 to 20 nM.
